Experimental data taken from paper PMC9596378, “Discovery and molecular basis of subtype-selective cyclophilin inhibitors” (Nature Chemical Biology, 2022).
Several values for one entry are separate records, joined by “and”; a condition that tells them apart may be missing. Equal entries are not always repeated. Entries after “also recorded” stand apart in the source; their conditions may differ.

Columns and labels:
[1] = target: T1, CES1 (Homo sapiens, UniProt P23141); assay: In vitro esterase activity on ester pro-drugs; format: in vitro ADME; parameters: unit not given here; details: CES1 (9b); three replicate columns
T1 construct: purchased R&D Systems
Method: (§1) In PCR tubes, ester compound (6 µM) and either buffer only, CES1 (0.25 µM), or CES2 (0.25 µM) was diluted in 100 mM Tris-HCl buffer, pH 7.4, with a final DMSO concentration of 1%. Samples were maintained on a PCR block at 37 °C for 8 h. After incubation, samples were diluted with 20 µL acetonitrile and analyzed by LC–MS at Harvard’s Center for Mass Spectroscopy. Di-ester, mono-ester, and di-acid abundances were quantified by total ion count of the primary isotope and the three compounds were summed and each one expressed as a fraction of the total sum.

[2] = target: T2, CES2 (Homo sapiens, UniProt O00748); assay: In vitro esterase activity on ester pro-drugs; format: in vitro ADME; parameters: unit not given here; details: CES2 (9c); three replicate columns
T2 construct: purchased R&D Systems
Method: as §1

[3] = tested on: HepG2 cells; assay: Cellular esterase activity on ester pro-drugs; format: in vitro ADME, human; parameters: unit: %; details: HepG2 intracellular (9h); three replicate columns
Method: (§2) Cells were seeded in 96-well, clear, flat-bottom, TC-treated plates in DMEM supplemented with 10% FBS for HEK293T, HeLa, and MEFs, F-12K supplemented with 10% FBS for A549, or MEM supplemented with 10% FBS for HepG2. Cells were seeded 24 h prior at a density where wells were ~70% confluent at the time of the experiment. Medium was removed and cells were incubated with 100 µL mixture containing each Cy5-conjugated compound (6 µM) in their respective medium at 1% DMSO for 48 h (36 h for HepG2) at 37 °C at 5% CO2. Supernatant was removed, and cells were washed twice with 100 µL PBS pH 7.4 (Gibco). Cells were then lysed for 15 min with 30 µL 10 mM Tris-HCl pH 8.0 buffer containing 0.05% SDS. Lysates were diluted with 100 µL acetonitrile and filtered. Lysates were analyzed by LC–MS at Harvard’s Center for Mass Spectroscopy. Di-ester, mono-ester, and di-acid abundances were quantified by total ion count of the primary isotope, and the three compounds were summed and each one expressed as a fraction of the total sum.

[4] = tested on: HeLa cells; assay: Fluorescence microscopy of Cy5-conjugated compounds; format: cell-based, human
Method: Cells were seeded into 96-well, black, clear-bottom, TC-treated plates, in DMEM supplemented with 10% FBS 24 h prior at a density where wells were ~80% confluent at the time of the experiment. Medium was removed and cells were then stained with 50 µL mixture containing Cy5-labeled compound (6 µM) in Kreb’s ringer solution HEPES buffered pH 7.2 (KRB), for 1 h at 37 °C. Then, 50 µL Hoechst 33342 (8 µM) and Mitotracker Green FM (0.1 µM) in KRB was added directly to wells containing cells and incubated for 15 min at 37 °C. Medium was removed and cells were washed twice with 100 µL KRB. Cells were then kept adherent to the wells in 100 µL KRB for imaging. Fluorescence microscopy was conducted on an Opera Phenix Plus High-Content Screening System, using Alexa 488, Alexa 647, and Hoescht 33342 channels. Images were analyzed using Harmony v.4.9.

[5] = tested on: HEK293T cells; assay: Cellular esterase activity on ester pro-drugs; format: in vitro ADME, human; parameters: unit not given here; details: HEK293T intracellular (9f); three replicate columns
Method: as §2

[6] = tested on: HeLa cells; assay: Cellular esterase activity on ester pro-drugs; format: in vitro ADME, human; parameters: unit not given here; details: Hela intracellular (9e); three replicate columns
Method: as §2

[7] = target: CypD (Homo sapiens, UniProt P30405); assay: Chymotrypsin coupled prolyl-isomerase assay; details: read-out: Wild-Type Cyclophilin Prolyl Isomerase Inhibition IC50 Values, CypD; wild-type CypD
Method: Five microliters of compound pre-dissolved in 5% DMSO/assay buffer was then added to appropriate wells and incubated at 2–3 °C for 5 min. Five microliters of 0.5 mM α-chymotrypsin from bovine pancreas (Type II, lyophilized powder, Millipore-Sigma) in 20% 1 mM HCl/Assay Buffer was then added to each well and incubated at 2–3 °C for 5 min. The plate was then quickly transferred to a FLIPR Tetra High-Throughput Cellular Screening System (Molecular Devices). Using the internal liquid handling system of the FLIPR, 1 µL 0.5 mM Suc-AAPF-AMC (Chymotrypsin Substrate II, Millipore-Sigma) dissolved in 0.55 M LiCl/2,2,2-trifluoroethanol was added to each well, which was then mixed for 5 s, followed by immediate fluorescence measurements every 1 s for 330 s using a 360–380 nm excitation LED module and a 400–460 nm emission filter. […] Raw fluorescence data was analyzed by non-linear regression analysis with Prism v.9 by fitting one-phase association curves to each well. […] Rate constants calculated for each well (s^−1) were then normalized to substrate only (no prolyl-isomerase) and enzyme + substrate only controls.

[8] = tested on: A549 cells; assay: Cellular esterase activity on ester pro-drugs; format: in vitro ADME, human; parameters: Di-ester: unit not given here; details: for intracellular conversion to di-acid (in words): A549, HeLa, HEK293T, HepG2, MEFs; for Di-ester: A549 intracellular (9d), three replicate columns
Method: as §2

[9] = In vitro ester pro-drug stability, buffer only; format: in vitro ADME; details: 8 h, 6 µM, pH 7.4
Method: as §1

[10] = tested on: MEFs; assay: Cellular esterase activity on ester pro-drugs; format: in vitro ADME, mouse; parameters: unit not given here; details: SV40 MEF intracellular (9g); three replicate columns
Method: as §2

T2 sequence (O00748 27-559): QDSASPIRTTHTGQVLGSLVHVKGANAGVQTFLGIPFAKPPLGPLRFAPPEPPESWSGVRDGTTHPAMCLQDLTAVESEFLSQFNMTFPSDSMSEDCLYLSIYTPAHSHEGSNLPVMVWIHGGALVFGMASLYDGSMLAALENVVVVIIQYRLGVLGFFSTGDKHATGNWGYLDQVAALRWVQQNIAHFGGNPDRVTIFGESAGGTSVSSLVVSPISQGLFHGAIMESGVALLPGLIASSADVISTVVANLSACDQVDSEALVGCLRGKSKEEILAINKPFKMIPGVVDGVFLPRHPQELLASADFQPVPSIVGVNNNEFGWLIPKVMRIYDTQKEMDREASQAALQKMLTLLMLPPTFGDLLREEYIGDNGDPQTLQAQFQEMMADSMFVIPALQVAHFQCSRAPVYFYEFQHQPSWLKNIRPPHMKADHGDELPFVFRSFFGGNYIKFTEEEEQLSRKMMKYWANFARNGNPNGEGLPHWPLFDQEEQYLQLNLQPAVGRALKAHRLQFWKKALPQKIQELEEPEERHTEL
T1 sequence (P23141 18-567): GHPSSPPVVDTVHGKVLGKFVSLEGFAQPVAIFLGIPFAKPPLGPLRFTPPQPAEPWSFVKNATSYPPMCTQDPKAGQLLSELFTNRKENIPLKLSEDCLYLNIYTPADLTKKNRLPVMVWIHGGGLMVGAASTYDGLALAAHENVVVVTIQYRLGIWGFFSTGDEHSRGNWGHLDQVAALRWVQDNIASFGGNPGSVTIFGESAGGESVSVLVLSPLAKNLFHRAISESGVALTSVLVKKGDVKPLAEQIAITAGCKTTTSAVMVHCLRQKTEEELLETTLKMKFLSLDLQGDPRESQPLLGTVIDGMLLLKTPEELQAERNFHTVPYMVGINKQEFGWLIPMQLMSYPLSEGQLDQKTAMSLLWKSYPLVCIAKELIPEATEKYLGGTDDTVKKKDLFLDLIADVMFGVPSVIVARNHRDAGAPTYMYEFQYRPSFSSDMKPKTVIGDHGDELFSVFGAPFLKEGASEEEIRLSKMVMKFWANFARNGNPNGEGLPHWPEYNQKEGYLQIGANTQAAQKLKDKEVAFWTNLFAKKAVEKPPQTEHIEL
Sequence of CypD (P30405 45-207): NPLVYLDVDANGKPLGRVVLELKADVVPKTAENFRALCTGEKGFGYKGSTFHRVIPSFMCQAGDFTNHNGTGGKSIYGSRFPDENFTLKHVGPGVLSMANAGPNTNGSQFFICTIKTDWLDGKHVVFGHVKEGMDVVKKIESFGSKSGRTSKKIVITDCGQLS

| Di-ester [1] | Di-ester [2] | Di-ester [3] | Di-ester [5] | Di-ester [6] | IC50 [7] | Di-ester [8] | Di-acid [9] | Di-ester [9] | Mono-ester [9] | Di-ester [10] | Structure (SMILES) | plasma membrane permeability / mitochondrial localization (in words) [4] | intracellular conversion to di-acid (in words) [8] |
| --- | --- | --- | --- | --- | --- | --- | --- | --- | --- | --- | --- | --- | --- |
| 13 and 14 and 16 | 30 and 35 and 21 | 45 and 44 and 43 | 9 and 11 and 8 | 1 | > 2000 nM | 0 (2×) and 1 | 0 | 100 | 0 | 8 and 6 and 7 | CCOC(=O)C(Cc1ccc(-c2ccc(CC3NC(=O)C4(Cc5ccccc5)CCCN(C4)C(=O)C=CC(=O)NCCC(C(=O)NCCNC(=O)CCCCCN4C(=CC=CC=CC5=[N+](C)c6ccccc6C5(C)C)C(C)(C)c5ccccc54)NC(=O)Cc4ccccc4CNC3=O)cc2)cc1)C(=O)OCC (centres unmarked) [Compound B52-Et-Cy5] | good mitochondrial localization; also recorded: good plasma membrane permeability | readily converted to the corresponding di-acids intracellularly |
| 12 and 10 and 13 | 21 (2×) and 11 | 67 and 68 (2×) | 74 (2×) and 72 | 20 and 12 (2×) | > 2000 nM | 18 and 14 and 21 | 0 | 100 | 0 | 36 and 40 and 39 | CCOC(=O)CC(CC(=O)OCC)c1ccc(-c2ccc(CC3NC(=O)C4(Cc5ccccc5)CCCN(C4)C(=O)C=CC(=O)NCCC(C(=O)NCCNC(=O)CCCCCN4C(=CC=CC=CC5=[N+](C)c6ccccc6C5(C)C)C(C)(C)c5ccccc54)NC(=O)Cc4ccccc4CNC3=O)cc2)cc1 (centres unmarked) [Compound B53-Et-Cy5] | good mitochondrial localization; also recorded: good plasma membrane permeability | readily converted to the corresponding di-acids intracellularly |
